Patent publication US20150353495A1 (PORTOLA PHARMACEUTICALS, INC., priority 2010, published 2015)

Columns and labels:
JAK2 = molecular target: T1, JAK2 (Homo sapiens, UniProt O60674); assay: Z'-LYTE kinase assay JAK2; assay type: biochemical
T1 construct: 5 μl of catalytic domain recombinant Kinase enzyme+Tyr peptide substrate (Invitrogen, CA); purchased Invitrogen
How it was run: (§1)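 Z′-LYTE FRET, Tyr6 peptide, recombinant catalytic domain + ATP, 1 h RT, 1% DMSO final, duplicates; protease development 1 h RT; fluorescence read.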

TYK2 = molecular target: T2, TYK2 (Homo sapiens, UniProt P29597); assay: Z'-LYTE kinase assay TYK2; assay type: biochemical
T2 construct: 5 μl of catalytic domain recombinant Kinase enzyme+Tyr peptide substrate (Invitrogen, CA); purchased Invitrogen
T2 sequence (P29597 897-1176 limits assumed): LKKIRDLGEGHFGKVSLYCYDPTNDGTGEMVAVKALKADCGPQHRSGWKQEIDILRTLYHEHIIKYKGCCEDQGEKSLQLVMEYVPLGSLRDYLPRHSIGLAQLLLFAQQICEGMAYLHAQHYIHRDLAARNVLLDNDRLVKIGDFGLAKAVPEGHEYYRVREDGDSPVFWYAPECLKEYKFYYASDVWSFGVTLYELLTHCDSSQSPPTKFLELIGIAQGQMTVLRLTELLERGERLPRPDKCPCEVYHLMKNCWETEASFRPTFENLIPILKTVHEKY
How it was run: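 IC50 derived by 4-parameter logistic fit of percent substrate phosphorylation relative to uninhibited wells. Tyr6 peptide phosphorylated by recombinant TYK2 catalytic domain for 1 h at room temperature (1% DMSO), cleaved by development protease 1 h, FRET emission ratio 445/520 nm.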

JAK3 = molecular target: T3, JAK3 (Homo sapiens, UniProt P52333); assay: Z'-LYTE kinase assay JAK3; assay type: biochemical
T3 construct: 5 μl of catalytic domain recombinant Kinase enzyme+Tyr peptide substrate (Invitrogen, CA); purchased Invitrogen
How it was run: as §1

JAK1 = molecular target: T4, JAK1 (Homo sapiens, UniProt P23458); assay: Z'-LYTE kinase assay JAK1; assay type: biochemical
T4 construct: 5 μl of catalytic domain recombinant Kinase enzyme+Tyr peptide substrate (Invitrogen, CA); purchased Invitrogen
How it was run: as §1

[1] = tested on: JAK1/3 signaling to STAT5 in primary T cells; assay: IL2 stimulation of JAK1/3 signaling to STAT5 in primary T cells (pSTAT5 Y694, FACS); assay type: cell-based; conditions: T-cell; for inhibition at 0.2 µM: 0.2 uM compound, read-out: IL-2/STAT5 Percent Inhibition at 0.2 uM; for inhibition at 1 µM: 1.0 μM compound, read-out: IL-2/STAT5 Percent Inhibition at 1.0 μM
Protocol: IL2 Stimulation of JAK1/3 Signaling to STAT5 in Primary T Cells:
The effect of JAK inhibitors on cytokine signaling pathways utilizing JAK3 was determined using an IL2 stimulation assay. IL2 engages a receptor complex that contains the IL2 receptor alpha and beta subunits, and the common gamma chain, to initiate activation of JAK1 and JAK3 leading to phosphorylation of STAT5 at tyrosine position 694. Lymphocytes are isolated from heparinized whole blood over a ficoll gradient, then resuspended in tissue culture media containing 10% fetal calf serum at 10×10̂6 cells/ml. 100 μl aliquots are pre-treated for 1 hour with various concentrations of compound, and then stimulated for 12 minutes with 100 U/ml IL2. The signaling reaction is terminated by fixing in 2% paraformaldehyde for 10 minutes at room temperature. Fixed cells are then washed and permeablized by suspension in 50% methanol (in PBS) at −80° C. Following overnight incubation at 4° C., cells are washed and resuspended in PBS containing 0.5% bovine serum albumin containing CD3-APC and pSTAT5 Y694-PE conjugated antibodies. After 1 hour incubation, cells are washed and the extent of STAT5 phosphorlyation in T cells is measured by FACS analysis.

[2] = tested on: JAK1/3 signaling to STAT6 in Ramos B cells; assay: IL4 stimulation of JAK1/3 signaling to STAT6 in Ramos B cells (pSTAT6 Y641, FACS); assay type: cell-based; conditions: Homo sapiens; for inhibition at 0.2 µM: 0.2 uM compound, read-out: IL-4/STAT6 in Ramos Percent Inhibition at 0.2 uM; for inhibition at 1 µM: 1.0 uM compound, read-out: IL-4/STAT6 in Ramos Percent Inhibition at 1.0 uM
How it was run: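 Phospho-STAT6 Y641 was measured by FACS using a PE-labelled antibody after fixation (2% paraformaldehyde) and methanol permeabilization. Before this, Ramos cells were exposed to compound for 1 h, then to 15 ng IL4 for 15 min.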

T4 sequence (P23458 875-1153 limits assumed): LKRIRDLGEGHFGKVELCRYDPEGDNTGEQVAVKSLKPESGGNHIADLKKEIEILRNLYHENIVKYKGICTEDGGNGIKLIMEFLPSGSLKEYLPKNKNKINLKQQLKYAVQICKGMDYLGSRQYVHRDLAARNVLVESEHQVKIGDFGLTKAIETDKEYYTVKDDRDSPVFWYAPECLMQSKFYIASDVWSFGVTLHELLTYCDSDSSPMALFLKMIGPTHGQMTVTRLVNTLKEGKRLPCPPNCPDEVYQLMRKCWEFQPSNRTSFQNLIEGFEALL
T1 sequence (O60674 849-1124 limits assumed): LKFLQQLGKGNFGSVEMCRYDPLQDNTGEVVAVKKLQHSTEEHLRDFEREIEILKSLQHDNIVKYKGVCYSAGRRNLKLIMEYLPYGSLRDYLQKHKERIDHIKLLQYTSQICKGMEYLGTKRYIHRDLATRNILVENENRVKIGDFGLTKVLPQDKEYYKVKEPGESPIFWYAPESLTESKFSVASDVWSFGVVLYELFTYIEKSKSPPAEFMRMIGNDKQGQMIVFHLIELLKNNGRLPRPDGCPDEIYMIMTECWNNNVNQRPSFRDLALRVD
T3 sequence (P52333 822-1111 limits assumed): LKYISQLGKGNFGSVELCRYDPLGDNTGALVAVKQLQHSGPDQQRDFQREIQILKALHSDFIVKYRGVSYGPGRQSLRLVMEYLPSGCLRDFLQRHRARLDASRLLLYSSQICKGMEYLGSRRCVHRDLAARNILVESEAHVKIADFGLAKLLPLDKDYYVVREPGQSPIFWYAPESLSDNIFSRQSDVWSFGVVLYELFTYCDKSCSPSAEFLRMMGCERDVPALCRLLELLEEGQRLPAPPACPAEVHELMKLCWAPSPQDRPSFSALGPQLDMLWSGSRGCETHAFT

Compound | IC50 (JAK2) [nM] | IC50 (TYK2) [nM] | IC50 (JAK3) [nM] | IC50 (JAK1) [nM] | inhibition at 0.2 µM [1] [%] | inhibition at 1 µM [1] [%] | inhibition at 0.2 µM [2] [%] | inhibition at 1 µM [2] [%]
NC(=O)c1cnc(Nc2cccc(C(=O)N3CCC3)c2)cc1NCc1ccccc1 [Example 45, 6-(3-(azetidine-1-carbonyl)phenylamino)-4-(benzylamino)nicotinamide] | 100 to 1000 | > 1000 | 10 to 100 | 100 to 1000 | 22 | 25 | – | –
CCC(=O)N1CCC(c2ccc(Nc3cc(NCc4cccc5[nH]ccc45)c(C(N)=O)cn3)cc2)CC1 [Example 200, 4-((1H-indol-4-yl)methylamino)-6-(4-(1-propionylpiperidin-4-yl)phenylamino)nicotinamide] | 10 to 100 | 10 to 100 | 1 to 10 | 10 to 100 | 77 | 103 | – | –
NC(=O)c1cnc(Nc2ccc(C3CCNCC3)cc2)cc1NCc1cccc(F)c1F [Example 209, 4-(2,3-difluorobenzylamino)-6-(4-(piperidin-4-yl)phenylamino)nicotinamide] | 10 to 100 | 100 to 1000 | 1 to 10 | 100 to 1000 | 70 | 99 | – | –
CC(=O)N1CCN(c2ccc(Nc3cc(NCC4CCCC4)c(C(N)=O)cn3)cc2)CC1 [Example 245, 6-(4-(4-acetylpiperazin-1-yl)phenylamino)-4-(cyclopentylmethylamino)nicotinamide] | 10 to 100 | 10 to 100 | 1 to 10 | 100 to 1000 | – | – | 14 | 38
CNC(=O)c1cccc(Nc2cc(NCc3ccccc3)c(C(N)=O)cn2)c1 [Example 246, 4-(benzylamino)-6-(3-(methylcarbamoyl)phenylamino)nicotinamide] | 100 to 1000 | > 1000 | 10 to 100 | 100 to 1000 | – | – | 6 | 11
CN(C)C(=O)c1cccc(Nc2cc(NCc3ccccc3)c(C(N)=O)cn2)c1 [Example 247, 4-(benzylamino)-6-(3-(dimethylcarbamoyl)phenylamino)nicotinamide] | 100 to 1000 | 100 to 1000 | 10 to 100 | 100 to 1000 | – | – | 6 | 24
CN(C)C(=O)c1ccc(Nc2cc(NCc3ccccc3)c(C(N)=O)cn2)cc1 [Example 248, 4-(benzylamino)-6-(4-(dimethylcarbamoyl)phenylamino)nicotinamide] | 100 to 1000 | 100 to 1000 | 1 to 10 | 100 to 1000 | – | – | 24 | 50
NC(=O)c1cnc(Nc2ccc(N3CCOCC3)c(Cl)c2)cc1NCc1ccccc1 [Example 251, 4-(benzylamino)-6-(3-chloro-4-morpholinophenylamino)nicotinamide] | 100 to 1000 | > 1000 | 10 to 100 | > 1000 | – | – | 17 | 51
CC(=O)N1CCN(c2ccc(Nc3cc(N[C@H]4CCc5ccccc54)c(C(N)=O)cn3)cc2)CC1 [Example 255, (S)-6-(4-(4-acetylpiperazin-1-yl)phenylamino)-4-(2,3-dihydro-1H-inden-1-ylamino)nicotinamide] | 100 to 1000 | 100 to 1000 | 10 to 100 | > 1000 | – | – | 11 | 18
CC(=O)N1CCN(c2ccc(Nc3cc(NCc4cccc(Cl)c4)c(C(N)=O)cn3)cc2)CC1 [Example 257, 6-(4-(4-acetylpiperazin-1-yl)phenylamino)-4-(3-chlorobenzylamino)nicotinamide] | 10 to 100 | 100 to 1000 | 1 to 10 | 100 to 1000 | – | – | 34 | 65
CC(=O)N1CCN(c2ccc(Nc3cc(NCc4ccccc4F)c(C(N)=O)cn3)cc2)CC1 [Example 258, 6-(4-(4-acetylpiperazin-1-yl)phenylamino)-4-(2-fluorobenzylamino)nicotinamide] | 10 to 100 | 100 to 1000 | 1 to 10 | 100 to 1000 | – | – | 39 | 63
Cc1cc(Nc2cc(NCc3cccc4cc[nH]c34)c(C(N)=O)cn2)ccc1C(=O)N(C)C [Example 283, 4-((1H-indol-7-yl)methylamino)-6-(4-(dimethylcarbamoyl)-3-methylphenylamino)nicotinamide] | 10 to 100 | > 1000 | 1 to 10 | > 1000 | 42 | 65 | – | –
COc1ccc(Nc2cc(NCc3cccc4ccsc34)c(C(N)=O)cn2)cc1 [Example 284, 4-(benzo[b]thiophen-7-ylmethylamino)-6-(4-methoxyphenylamino)nicotinamide] | 100 to 1000 | > 1000 | 10 to 100 | > 1000 | 39 | 75 | – | –
Cc1cc(Nc2cc(NCc3cccc4ccsc34)c(C(N)=O)cn2)ccc1C(=O)N(C)C [Example 285, 4-(benzo[b]thiophen-7-ylmethylamino)-6-(4-(dimethylcarbamoyl)-3-methylphenylamino)nicotinamide] | 10 to 100 | 100 to 1000 | < 1 | 10 to 100 | 58 | 96 | – | –
CC(=O)N1CC(c2ccc(Nc3cc(NCc4cccc5ccsc45)c(C(N)=O)cn3)cc2)C1 [Example 333, 6-(4-(1-acetylazetidin-3-yl)phenylamino)-4-(benzo[b]thiophen-7-ylmethylamino)nicotinamide] | 10 to 100 | – | 1 to 10 | 100 to 1000 | 35 | 84 | – | –
NC(=O)c1cnc(Nc2ccc(N3CCN(c4ccccn4)CC3)cc2)cc1NCc1ccccc1 [Example 385] | > 1000 | – | 10 to 100 | > 1000 | 37 | 62 | – | –
CN(C)C(=O)c1ccc(Nc2cc(NCc3cccc(-c4ccncc4)c3)c(C(N)=O)cn2)cc1 [Example 412, 6-(4-(dimethylcarbamoyl)phenylamino)-4-(3-(pyridine-4-yl)benzylamino)nicotinamide] | 100 to 1000 | – | 1 to 10 | 100 to 1000 | 25 | 59 | – | –
NC(=O)c1cnc(Nc2cccc(OCC(=O)N3CCOCC3)c2)cc1NCc1ccccc1 [Example 430, 4-(benzylamino)-6-(3-(2-morpholino-2-oxoethoxy)phenylamino)nicotinamide] | 100 to 1000 | 100 to 1000 | 1 to 10 | 100 to 1000 | – | – | 15 | 36
NC(=O)c1cnc(Nc2ccc(CN3CCOCC3)cc2)cc1NCc1ccccc1 [Example 431, 4-(benzylamino)-6-(4-(morpholinomethyl)phenylamino)nicotinamide] | 100 to 1000 | > 1000 | 1 to 10 | > 1000 | – | – | 7 | 24
COCCOc1ccc(Nc2cc(NCc3ccccc3)c(C(N)=O)cn2)cc1 [Example 432, 4-(benzylamino)-6-(4-(2-methoxyethoxyl)phenylamino)nicotinamide] | 100 to 1000 | > 1000 | 10 to 100 | > 1000 | – | – | 16 | 17
COCCOc1cccc(Nc2cc(NCc3ccccc3)c(C(N)=O)cn2)c1 [Example 433, -(benzylamino)-6-(3-(2-methoxyethoxyl)phenylamino)nicotinamide] | 100 to 1000 | > 1000 | 10 to 100 | 100 to 1000 | – | – | 18 | 27
